# Several values for one entry are separate records, joined by “and”; a condition that tells them apart may be missing. Identical values can stand only once.
# Experiments:
# [1] = system: CNS D-2 dopamine receptors; assay: In vivo planar imaging of a monkey; conditions: planar images
# From the text: (§1) (See FIG. 2). This type of profound increase in target to nontarget ratio versus time was not observed for the other two regions (hippocampus and cortex) (FIG. 2). […] The data have been further confirmed by an in vivo imaging study of a monkey.
# [2] = system: CNS D-2 dopamine receptors; assay: Ex vivo autoradiography (preliminary); format: in vivo; conditions: preliminary study
# From the text: as §1
# [3] = system: CNS D-2 dopamine receptors; assay: Regional brain distribution in rats after iv injection; format: in vivo; conditions: rat; for striatum/cerebellum (ST/CB) ratio: % dose/gram ratio
# From the text: FIG. 2 is a bar graph showing ratios (based on % dose/gram) of regional cerebral uptake of [^125 I]IBF (CX: cortex, ST: striatum, CB: cerebellum, HP: hippocampus).
# as §1
# Regional brain distribution in rats was obtained after an iv injection of [^125 l]IBF, 21. By dissecting, weighing and counting samples from different brain regions (cortex, striatum, hippocampus and cerebellum), % dose/gram of samples was calculated by comparing the sample counts with the counts of the diluted initial dose. The uptake ratio of each region was obtained by dividing % dose/gram of each region with that ot the cerebellum.
# dopamine D-2 receptor [4] = molecular target: T1, dopamine D-2 receptor (Rattus norvegicus, UniProt P61169); assay: Saturation binding of [^125 I]IBF to rat striatal homogenate in vitro
# T1 construct: Striatal tissues were excised, pooled and homogenized in 100 volumes (w/v) of ice-cold Tris-HCl buffer; from tissue; host or cells: rat striatum (male Sprague-Dawley), twice-centrifuged membrane homogenate
# T1 sequence (P61169 whole entry): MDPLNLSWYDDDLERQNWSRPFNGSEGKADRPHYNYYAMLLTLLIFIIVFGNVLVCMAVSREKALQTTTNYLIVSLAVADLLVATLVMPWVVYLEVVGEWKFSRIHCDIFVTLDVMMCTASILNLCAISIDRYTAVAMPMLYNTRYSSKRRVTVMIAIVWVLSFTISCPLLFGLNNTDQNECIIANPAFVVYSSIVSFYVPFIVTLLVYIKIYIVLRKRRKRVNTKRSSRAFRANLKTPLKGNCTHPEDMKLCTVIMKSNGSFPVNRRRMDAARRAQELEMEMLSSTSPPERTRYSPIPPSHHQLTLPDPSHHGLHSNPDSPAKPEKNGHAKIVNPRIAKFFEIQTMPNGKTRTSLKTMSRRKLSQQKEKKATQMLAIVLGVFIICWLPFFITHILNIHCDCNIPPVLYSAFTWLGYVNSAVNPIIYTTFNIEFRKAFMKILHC
# Procedure: (§2) Male Sprague-Dawley rats (200-250 g) were decapitated, and the brains were removed and placed in ice. Striatal tissues were excised, pooled and homogenized in 100 volumes (w/v) of ice-cold Tris-HCl buffer (50 mM), pH 7.4. The homogenates were centrifuged at 20,000× g for 20 min. The resultant pellets were rehomogenized in the same buffer and centrifuged again. The final pellets were resuspended in assay buffer containing: 50 mM Tris buffer pH 7.4, 120 mM NaCl, 5 mM KCl, 2 mM CaCl2 and 1 mM MgCl2 and kept at -20° C. for the following binding assay.
# (§3) The binding assays were performed by incubating 50 μl of tissue preparations containing 40-60 μg of protein with appropriate amounts of l-125 labeled ligand and competitors in a total volume of 0.2 ml of the assay buffer. After an incubation period of 15 min at 37° C. (with stirring), the samples were rapidly filtered in the cell harvester (Brandel M-24R) under vacuum through Whatman GF/B glass fiber filters pretreated with 0.2% protamine base and washed with 3×5 ml of cold (4° C.) 50 mM Tris-HCl buffer, pH 7.4. […] The filters were counted in a gamma counter (Beckman 5500) at an efficiency of 70%.
# dopamine D-2 receptor [5] = molecular target: T1, dopamine D-2 receptor; assay: Competition binding using [^125 I]IBF, rat striatal membranes
# Procedure: *0.15-0.30 nM [^125 I]IBF was incubated in the presence of the
# indicated compounds in 7-11 concentrations and of membrane preparation
# from rat striatum. Each value represents the mean ± SEM of three to
# as §2, §3
# [6] = Biodistribution in rats after IV injection; format: in vivo, rat
# Procedure: Male Sprague Dawley rats (225-300 g), which were allowed free access to food and water, were used for in vivo biodistribution study. While under halothane anesthesia, 0.2 ml of a saline solution containing [^125 l]IBF, 21, (8-10 μCi) was injected directly into the femoral vein, and the rats were sacrificed at various time points postinjection by cardiac excision under halothane anesthesia. The organs of interest were removed, weighed and the radioactivity was counted using a Beckman gamma automatic counter (Model 4000). The percent dose per organ was calculated by a comparison of the tissue counts to suitably diluted aliquots of the injected material. Total activities of blood and muscle were calculated assuming that they are 7% and 40% of total body weight, respectively.
# [7] = 2 min, IV, average of 3 rats ± SD
# [8] = 15 min, IV, average of 3 rats ± SD
# [9] = 30 min, IV, average of 3 rats ± SD
# [10] = 60 min, IV, average of 3 rats ± SD
# [11] = 120 min, IV, average of 3 rats ± SD
compound,measurement,setting,value
CCN1CCC[C@H]1CNC(=O)c1cc([125I])cc2c1OCC2 [[^125 I]IBF],uptake and retention in the basal ganglia,[1],high uptake and retention in the basal ganglia
same,striatal uptake and cerebellar activity,[2],high striatal uptake and low cerebellar activity
same,striatum/cerebellum (ST/CB) ratio,[3]; 2 min,2.0
same,striatum/cerebellum (ST/CB) ratio,[3]; 15 min,3.8
same,striatum/cerebellum (ST/CB) ratio,[3]; 30 min,6.2
same,striatum/cerebellum (ST/CB) ratio,[3]; 60 min,18
same,striatum/cerebellum (ST/CB) ratio,[3]; 120 min,48
same,"increase in target to nontarget ratio versus time, hippocampus and cortex",[3]; hippocampus and cortex,not observed
same,retention in the striatum,[3],prolonged retention
same,specific binding saturability,dopamine D-2 receptor [4],saturable
same,Kd,"dopamine D-2 receptor [4]; rat striatal homogenate in vitro, read-out: Kd, specific binding",106 ± 15 pM
same,nonspecific binding,"dopamine D-2 receptor [4]; saturation curve, FIG. 1",extremely low nonspecific binding
same,nonspecific binding at Kd,"dopamine D-2 receptor [4]; saturation curve, FIG. 1",5%
same,selectivity of binding to the dopamine D-2 receptor,dopamine D-2 receptor [5],binds specifically and selectively to the dopamine D-2 receptor
same,Blood uptake,[6]; [7],3.50 ± 0.22 % Dose/Organ
same,Brain uptake,[6]; [7],0.98 ± 0.15 % Dose/Organ and 0.98 % Dose/Organ
same,Brain/Blood ratio,[6]; [7],2.64 ± 0.32 % dose/gram ratio
same,Heart uptake,[6]; [7],0.81 ± 0.25 % Dose/Organ
same,Kidney uptake,[6]; [7],7.58 ± 0.66 % Dose/Organ
same,Liver uptake,[6]; [7],16.32 ± 4.00 % Dose/Organ
same,Lung uptake,[6]; [7],6.14 ± 1.19 % Dose/Organ and 6.14 % Dose/Organ
same,Muscle uptake,[6]; [7],11.25 ± 2.62 % Dose/Organ
same,Skin uptake,[6]; [7],8.54 ± 1.21 % Dose/Organ
same,Spleen uptake,[6]; [7],0.96 ± 0.08 % Dose/Organ
same,Thyroid uptake,[6]; [7],0.06 ± 0.02 % Dose/Organ
same,Blood uptake,[6]; [8],1.80 ± 0.31 % Dose/Organ
same,Brain uptake,[6]; [8],0.54 ± 0.06 % Dose/Organ
same,Brain/Blood ratio,[6]; [8],3.01 ± 0.91 % dose/gram ratio
same,Heart uptake,[6]; [8],0.20 ± 0.03 % Dose/Organ
same,Kidney uptake,[6]; [8],2.92 ± 0.30 % Dose/Organ
same,Liver uptake,[6]; [8],16.16 ± 7.54 % Dose/Organ
same,Lung uptake,[6]; [8],1.85 ± 0.33 % Dose/Organ
same,Muscle uptake,[6]; [8],14.36 ± 1.29 % Dose/Organ
same,Skin uptake,[6]; [8],8.46 ± 0.56 % Dose/Organ
same,Spleen uptake,[6]; [8],0.58 ± 0.08 % Dose/Organ
same,Thyroid uptake,[6]; [8],0.03 ± 0.004 % Dose/Organ
same,Blood uptake,[6]; [9],1.26 ± 0.10 % Dose/Organ
same,Brain uptake,[6]; [9],0.30 ± 0.05 % Dose/Organ
same,Brain/Blood ratio,[6]; [9],2.26 ± 0.33 % dose/gram ratio
same,Heart uptake,[6]; [9],0.11 ± 0.01 % Dose/Organ
same,Kidney uptake,[6]; [9],1.58 ± 0.46 % Dose/Organ
same,Liver uptake,[6]; [9],11.59 ± 0.93 % Dose/Organ
same,Lung uptake,[6]; [9],0.82 ± 0.08 % Dose/Organ and 0.82 % Dose/Organ
same,Muscle uptake,[6]; [9],9.00 ± 1.66 % Dose/Organ
same,Skin uptake,[6]; [9],5.34 ± 0.17 % Dose/Organ
same,Spleen uptake,[6]; [9],0.31 ± 0.03 % Dose/Organ
same,Thyroid uptake,[6]; [9],0.02 ± 0.004 % Dose/Organ
same,Blood uptake,[6]; [10],0.98 ± 0.11 % Dose/Organ
same,Brain uptake,[6]; [10],0.17 ± 0.02 % Dose/Organ and 0.17 % Dose/Organ
same,Brain/Blood ratio,[6]; [10],1.90 ± 0.29 % dose/gram ratio
same,Heart uptake,[6]; [10],0.05 ± 0.002 % Dose/Organ
same,Kidney uptake,[6]; [10],1.01 ± 0.01 % Dose/Organ
same,Liver uptake,[6]; [10],9.84 ± 1.50 % Dose/Organ
same,Lung uptake,[6]; [10],0.37 ± 0.10 % Dose/Organ
same,Muscle uptake,[6]; [10],4.97 ± 0.56 % Dose/Organ
same,Skin uptake,[6]; [10],2.38 ± 0.17 % Dose/Organ
same,Spleen uptake,[6]; [10],0.09 ± 0.01 % Dose/Organ
same,Thyroid uptake,[6]; [10],0.02 ± 0.01 % Dose/Organ and 0.02 % Dose/Organ
same,Blood uptake,[6]; [11],0.53 ± 0.02 % Dose/Organ
same,Brain uptake,[6]; [11],0.07 ± 0.006 % Dose/Organ
same,Brain/Blood ratio,[6]; [11],1.53 ± 0.12 % dose/gram ratio
same,Heart uptake,[6]; [11],0.02 ± 0.001 % Dose/Organ
same,Kidney uptake,[6]; [11],0.68 ± 0.32 % Dose/Organ
same,Liver uptake,[6]; [11],3.95 ± 0.31 % Dose/Organ
same,Muscle uptake,[6]; [11],2.30 ± 0.22 % Dose/Organ
same,Skin uptake,[6]; [11],1.18 ± 0.18 % Dose/Organ
same,Spleen uptake,[6]; [11],0.03 ± 0.007 % Dose/Organ
same,Thyroid uptake,[6]; [11],0.08 ± 0.03 % Dose/Organ
same,in vivo deiodination,[6]; from thyroid uptake at one hour postinjection,little or no in vivo deiodination
same,in vivo stability compared with [^125 I]IBZM,"[6]; rat, in vivo",better in vivo stability
same,lung clearance,[6]; rats,rapidly cleared
same,Liver uptake,"[6]; rats, first hour to two hours postinjection",remained high throughout the first hour and gradually declined at two hours postinjection
same,Brain uptake,"[6]; rats, intravenous",good brain uptake in rats

# — patent publication US5334728A (The Trustees of The University of Pennsylvania, priority 1992, dated 1994)
